Experimental data published in PubChem BioAssay (NCI).
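Five compound concentrations were applied to cells in 96-well plates for 48 hours; endpoints were derived by simple linear interpolation of the resulting dose-response curve. TGI is the concentration that stops growth completely.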

Experiments:
Assay in all cases: NCI anticancer screen, dose series, 48 h
HS 578T breast = system: HS 578T breast
NCI-H460 lung = system: NCI-H460 lung
CAKI-1 renal = system: CAKI-1 renal
NCI-H522 lung = system: NCI-H522 lung
LOX IMVI melanoma = system: LOX IMVI melanoma
MCF7 breast = system: MCF7 breast
CCRF-CEM leukemia = system: CCRF-CEM leukemia
NCI-H226 lung = system: NCI-H226 lung
SK-MEL-28 melanoma = system: SK-MEL-28 melanoma
U251 CNS = system: U251 CNS
COLO 205 colon = system: COLO 205 colon
EKVX NSCLC = system: EKVX NSCLC
SF-539 CNS = system: SF-539 CNS
KM12 colon = system: KM12 colon
MDA-MB-435 = system: MDA-MB-435
HOP-62 NSCLC = system: HOP-62 NSCLC
M14 melanoma = system: M14 melanoma
NCI-H23 lung = system: NCI-H23 lung
SN12C renal = system: SN12C renal
MALME-3M melanoma = system: MALME-3M melanoma
SNB-19 CNS = system: SNB-19 CNS
UO-31 renal = system: UO-31 renal
HL-60(TB) leukemia = system: HL-60(TB) leukemia
RXF 393 renal = system: RXF 393 renal
BT-549 breast = system: BT-549 breast
OVCAR-5 ovarian = system: OVCAR-5 ovarian
OVCAR-8 ovarian = system: OVCAR-8 ovarian
IGROV1 ovarian = system: IGROV1 ovarian
T-47D breast = system: T-47D breast
UACC-62 melanoma = system: UACC-62 melanoma
SW-620 colon = system: SW-620 colon
A549 NSCLC = system: A549 NSCLC
SF-295 CNS = system: SF-295 CNS
UACC-257 melanoma = system: UACC-257 melanoma
ACHN renal = system: ACHN renal
HT29 colon = system: HT29 colon
SK-MEL-5 melanoma = system: SK-MEL-5 melanoma
MDA-N = system: MDA-N
OVCAR-4 ovarian = system: OVCAR-4 ovarian
SK-MEL-2 melanoma = system: SK-MEL-2 melanoma
OVCAR-3 ovarian = system: OVCAR-3 ovarian
SNB-75 CNS = system: SNB-75 CNS
RPMI-8226 leukemia = system: RPMI-8226 leukemia
K-562 leukemia = system: K-562 leukemia
A498 renal = system: A498 renal
TK-10 renal = system: TK-10 renal
HCT-15 colon = system: HCT-15 colon
DU-145 prostate = system: DU-145 prostate
SF-268 CNS = system: SF-268 CNS
NCI/ADR-RES ovarian = system: NCI/ADR-RES ovarian
MDA-MB-231 breast = system: MDA-MB-231 breast
SR leukemia = system: SR leukemia
PC-3 prostate = system: PC-3 prostate
SK-OV-3 ovarian = system: SK-OV-3 ovarian
HCT-116 colon = system: HCT-116 colon
HOP-92 NSCLC = system: HOP-92 NSCLC
786-0 renal = system: 786-0 renal
MOLT-4 leukemia = system: MOLT-4 leukemia
HCC-2998 colon = system: HCC-2998 colon

CC(CCN)(CCN)[N+](=O)[O-]
TGI (HS 578T breast): > 100 µM
TGI (NCI-H460 lung): > 100 µM
TGI (CAKI-1 renal): > 100 µM
TGI (NCI-H522 lung): > 100 µM
TGI (LOX IMVI melanoma): > 100 µM
TGI (MCF7 breast): > 100 µM
TGI (CCRF-CEM leukemia): > 100 µM
TGI (NCI-H226 lung): > 100 µM
TGI (SK-MEL-28 melanoma): > 100 µM
TGI (U251 CNS): > 100 µM
TGI (COLO 205 colon): > 100 µM
TGI (EKVX NSCLC): > 100 µM
TGI (SF-539 CNS): > 100 µM
TGI (KM12 colon): > 100 µM
TGI (MDA-MB-435): > 100 µM
TGI (HOP-62 NSCLC): > 100 µM
TGI (M14 melanoma): > 100 µM
TGI (NCI-H23 lung): > 100 µM
TGI (SN12C renal): > 100 µM
TGI (MALME-3M melanoma): > 100 µM
TGI (SNB-19 CNS): > 100 µM
TGI (UO-31 renal): > 100 µM
TGI (HL-60(TB) leukemia): > 100 µM
TGI (RXF 393 renal): > 100 µM
TGI (BT-549 breast): > 100 µM
TGI (OVCAR-5 ovarian): > 100 µM
TGI (OVCAR-8 ovarian): > 100 µM
TGI (IGROV1 ovarian): > 100 µM
TGI (T-47D breast): > 100 µM
TGI (UACC-62 melanoma): > 100 µM
TGI (SW-620 colon): > 100 µM
TGI (A549 NSCLC): > 100 µM
TGI (SF-295 CNS): > 100 µM
TGI (UACC-257 melanoma): > 100 µM
TGI (ACHN renal): > 100 µM
TGI (HT29 colon): > 100 µM
TGI (SK-MEL-5 melanoma): > 100 µM
TGI (MDA-N): > 100 µM
TGI (OVCAR-4 ovarian): > 100 µM
TGI (SK-MEL-2 melanoma): > 100 µM
TGI (OVCAR-3 ovarian): > 100 µM
TGI (SNB-75 CNS): > 100 µM
TGI (RPMI-8226 leukemia): > 100 µM
TGI (K-562 leukemia): > 100 µM
TGI (A498 renal): > 100 µM
TGI (TK-10 renal): > 100 µM
TGI (HCT-15 colon): > 100 µM
TGI (DU-145 prostate): > 100 µM
TGI (SF-268 CNS): > 100 µM
TGI (NCI/ADR-RES ovarian): > 100 µM
TGI (MDA-MB-231 breast): > 100 µM
TGI (SR leukemia): > 100 µM
TGI (PC-3 prostate): > 100 µM
TGI (SK-OV-3 ovarian): > 100 µM
TGI (HCT-116 colon): > 100 µM
TGI (HOP-92 NSCLC): > 100 µM
TGI (786-0 renal): > 100 µM
TGI (MOLT-4 leukemia): > 100 µM

CCCCCCCCCCCCCCCCCCNc1ccn(C2OC(COP(=O)(O)OCC3OC(n4cc(F)c(=O)[nH]c4=O)CC3O)C(O)C2O)c(=O)n1 (stereo unspecified)
TGI (HS 578T breast): > 100 µM
TGI (NCI-H460 lung): > 100 µM
TGI (CAKI-1 renal): > 100 µM
TGI (NCI-H522 lung): > 100 µM
TGI (LOX IMVI melanoma): 18.2 µM
TGI (MCF7 breast): > 48.6 µM
TGI (CCRF-CEM leukemia): > 49.7 µM
TGI (NCI-H226 lung): > 100 µM
TGI (SK-MEL-28 melanoma): > 100 µM
TGI (U251 CNS): > 100 µM
TGI (COLO 205 colon): > 80.4 µM
TGI (EKVX NSCLC): > 100 µM
TGI (KM12 colon): 41.8 µM
TGI (MDA-MB-435): > 100 µM
TGI (HOP-62 NSCLC): > 100 µM
TGI (M14 melanoma): > 78.1 µM
TGI (NCI-H23 lung): 17.9 µM
TGI (SN12C renal): > 100 µM
TGI (MALME-3M melanoma): > 100 µM
TGI (SNB-19 CNS): > 100 µM
TGI (UO-31 renal): > 100 µM
TGI (HL-60(TB) leukemia): 22.1 µM
TGI (RXF 393 renal): 35.6 µM
TGI (BT-549 breast): > 79.7 µM
TGI (OVCAR-5 ovarian): 39.7 µM
TGI (OVCAR-8 ovarian): > 100 µM
TGI (IGROV1 ovarian): 35.8 µM
TGI (T-47D breast): > 100 µM
TGI (UACC-62 melanoma): > 74.4 µM
TGI (SW-620 colon): > 100 µM
TGI (A549 NSCLC): > 100 µM
TGI (SF-295 CNS): > 100 µM
TGI (UACC-257 melanoma): > 100 µM
TGI (ACHN renal): > 100 µM
TGI (HT29 colon): > 84.3 µM
TGI (SK-MEL-5 melanoma): > 100 µM
TGI (MDA-N): > 100 µM
TGI (HCC-2998 colon): > 100 µM
TGI (OVCAR-4 ovarian): > 100 µM
TGI (SK-MEL-2 melanoma): > 100 µM
TGI (OVCAR-3 ovarian): > 100 µM
TGI (SNB-75 CNS): > 100 µM
TGI (RPMI-8226 leukemia): > 53.3 µM
TGI (K-562 leukemia): > 100 µM
TGI (A498 renal): > 100 µM
TGI (TK-10 renal): > 55.5 µM
TGI (HCT-15 colon): > 100 µM
TGI (DU-145 prostate): > 100 µM
TGI (SF-268 CNS): > 50 µM
TGI (NCI/ADR-RES ovarian): > 54.8 µM
TGI (MDA-MB-231 breast): > 100 µM
TGI (SR leukemia): 28.8 µM
TGI (PC-3 prostate): 19.7 µM
TGI (SK-OV-3 ovarian): > 100 µM
TGI (HCT-116 colon): > 100 µM
TGI (HOP-92 NSCLC): > 100 µM
TGI (786-0 renal): > 100 µM
TGI (MOLT-4 leukemia): 25.2 µM
